Laboratory results: patent US20110027185A1, “Methods of Screening for Anti-Angiogenic Compounds” (priority 2007, published 2011)

What was measured:
HUVEC [1] = experiment: HUVEC growth inhibition assay (NCI); format: cell-based, human; conditions: 72 h, crystal violet
Method: Angiogenesis assays were provided by the NCI, details of the assay protocols are given below. In each assays TNP-470 and paclitaxel (Taxol®) were used as reference compounds. HUVEC (1.5×10^3) were plated in a 96-well plate in 100 μL of EBM-2 (Clonetic #CC3162). […] On day 0, one plate was stained with 0.5% crystal violet in 20% methanol for 10 minutes, rinsed with water, and air-dried. The remaining plates were incubated for 72 h at 37° C. After 72 h, plates were stained with 0.5% crystal violet in 20% methanol, rinsed with water and air-dried. The stain was eluted with 1:1 solution of ethanol:0.1 M sodium citrate (including day 0 plate), and absorbance was measured at 540 nm with an ELISA reader (Dynatech Laboratories). Day 0 absorbance was subtracted from the 72 h plates and data was plotted as percentage of control proliferation (vehicle treated cells).

HUVEC [2] = experiment: HUVEC cord formation assay on matrigel (NCI); format: cell-based, human; conditions: 24 h
Method: Angiogenesis assays were provided by the NCI, details of the assay protocols are given below. In each assays TNP-470 and paclitaxel (Taxol®) were used as reference compounds. Matrigel (60 μL of 10 mg/mL; Collaborative Lab #35423) was placed in each well of an ice-cold 96-well plate. The plate was allowed to sit at room temperature for 15 minutes then it was incubated at 37° C. for 30 minutes to permit the matrigel to polymerize. In the mean time, HUVEC were prepared in EGM-2 (Clonetic #CC3162) at a concentration of 2×10^5 cells/mL. […] The cells (500 μL) and the drug at 2 times concentration (500 μL) were mixed and 200 μL of this suspension was placed in duplicate on the polymerized matrigel. After 24 h incubation, triplicate pictures were taken for each concentration using a Bioquant Image Analysis system. Drug effect (IC50) is assessed compared to untreated controls by measuring the length of cords formed and number of junctions.

HUVEC [3] = experiment: HUVEC cell migration (chemotaxis) assay, Boyden chamber (NCI); format: cell-based, human; conditions: 5 h
Method: Angiogenesis assays were provided by the NCI, details of the assay protocols are given below. In each assays TNP-470 and paclitaxel (Taxol®) were used as reference compounds. Migration was assessed using the 48-well Boyden chamber and 8 μm pore size collagen-coated (10 μg/mL rat tail collagen; Collaborative Laboratories) polycarbonate filters (Osmonics, Inc.). The bottom chamber wells received 27-29 μL of DMEM medium alone (baseline) or medium containing chemo-attractant (bFGF, VEGF or Swiss 3T3 cell conditioned medium). The top chambers received 45 μL of HUVEC cell suspension (1×10^6 cells/mL) prepared in DMEM+1% BSA with or without test compound. After 5 h incubation at 37° C., the membrane was rinsed in PBS, fixed and stained in Diff-Quick solutions. The filter was placed on a glass slide with the migrated cells facing down and cells on top were removed using a Kimwipe. The testing was performed in 4-6 replicates and five fields were counted from each well. Negative, unstimulated, control values were subtracted from stimulated control and drug treated values and data was plotted as mean migrated cell±S.D. The IC50 was calculated from the plotted data.

FBP21 = biological target: T1, FBP21 (Homo sapiens, UniProt O75554); experiment: Phage display biopanning with biotinylated bait, Human Colon Tumour Library; format: binding; conditions: SDS and E. coli elution
T1 construct: encode 99 amino acids in frame with the phage coat protein of which a segment of 83 residues share 100% homology with FBP21; purchased Novagen; host or cells: T7 phage amplified in E. coli BLT5403
T1 sequence (O75554 with tags, fused parts or gaps): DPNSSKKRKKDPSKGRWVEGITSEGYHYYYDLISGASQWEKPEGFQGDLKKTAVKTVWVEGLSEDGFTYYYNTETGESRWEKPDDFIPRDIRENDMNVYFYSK
Method: Streptavidin wells were incubated with 1 μM biotinylated probe at 4° C. overnight to prepare the wells for biopanning. After incubation, unbound biotinylated probe was removed from the well by washing with phosphate buffered saline (PBS). Wells were then blocked with blocking solution (3% skimmed milk in PBS) for at least one hour at room temperature. Blocked wells were then briefly washed with PBS and were ready for biopanning use. […] In the first round of biopanning, 0.15 mL of amplified phage library was added to an empty streptavidin coated well and incubated at room temperature for at least 1 hour. This step was included to deselect any phage displaying streptavidin binding proteins. After incubation, the phage were removed from the well and mixed with 50 μL 4× blocking solution (12% skimmed milk in PBS) and incubated at room temperature for at least one hour. 0.125 mL of blocked phage library was added to each pre-prepared biotinylated well and incubated at room temperature for at least one hour. […] After incubation, unbound phage were removed from the well with wash solution. The wash solution was varied depending on the round of biopanning. For first round of biopanning PBS1 was used. For subsequent rounds the stringency of the wash was increased by using sequentially PBS2, PBS3 and PBS4 (see Table I). […]

[4] = test system: Lewis lung adenocarcinoma; conditions: rats, intraperitoneal and per os, subtoxic doses; cited from earlier work
[5] = test system: mouse colon adenocarcinoma cells; conditions: subtoxic dose, colon 38 spleen liver model; cited from earlier work
[6] = test system: VEGFxxx and VEGFxxxb expression in RPE cells; experiment: VEGF isoform ELISA of media of treated RPE cells; format: cell-based; conditions: 0.5 μM or 5 μM, 72 hours
Method: Media was sampled after 72 hours treatment, and assessed for total VEGF and VEGFxxxb expression (see Bates et al., 2002, Woolard et al., 2004 and Varey et al., 2008 for methods).

[7] = test system: VEGFxxxb and total VEGF in RPE cells; experiment: Dose dependent effect on VEGF in RPE cell lysate (ELISA, Western blot); format: cell-based; conditions: 24 hours
Method: FIG. 7: Comparison of the effect of compound 5 on the VEGF levels by ELISA. RPE cells were treated with increasing concentrations of compound 5 for 24 hours and the VEGFxxxb and total VEGF concentrations measured by ELISA. **p<0.05, Dunnett's, **p<0.01, 95% confidence interval, alpha=0.05, N=3.
FIG. 8: (A) Western Blot analysis of the cell lysate for expression of VEGF165b. Primary antibody: 56/1 mouse anti-h antibody (200 μg/ml, 1:250 dilution) and secondary antibody: Goat anti-mouse antibody (1:7000 dilution).
RPE cell lysate was extracted after 24 hours incubation with increasing concentrations of compound 5. VEGFxxxb and VEGFxxx levels were then analysed by ELISA (see Bates et al., 2002, Woolard et al., 2004 and Varey et al., 2008 for methods). These levels were compared to total cell protein levels.

FBP21 in RPE cells = experiment: VEGFxxxb levels in RPE cells transfected with FBP21 construct; format: cell-based, human; conditions: pWV327 vs pOriGene-FBP21 control, 7 uM, 24 hours
Method: (§1) pOriGene-FBP21 (FIG. 9A, SEQ ID No. 5) was purchased from Origene. This construct contains the cDNA for the human FBP21 gene. Due to the presence in this contruct of non-essential DNA which would have disrupted the expression of FBP21, a three part ligation was carried out to remove this DNA. This generated pWV327 (FIG. 9B, SEQ ID No. 6).
(§2) Both RPE and HEK cells were transfected with either pOriGene-FBP21 (as a control, due to the lack of FBP21 expression) or pWV327 (for overexpression of FBP21), using standard techniques. These cell lines were then treated with compound 5 (7 uM) or untreated, and VEGFxxxb levels analysed after 24 hours. FIGS. 10A, B and C show the results of this analysis.

FBP21 in HEK cells = experiment: VEGFxxxb levels in HEK cells transfected with FBP21 construct; format: cell-based, human; conditions: pWV327 vs pOriGene-FBP21 control, 7 uM, 24 hours
Method: as §1, §2

[8] = test system: retinal neovascularisation; experiment: Mouse Retinopathy of Prematurity (ROP) oxygen induced retinopathy model; format: in vivo; conditions: for neovascularisation compared with contralateral eye: day 17, p<0.01 paired t-test
Method: Evidence that compound 5, a borrelidin analogue which affects splicing of VEGF through FBP21, affects angiogenesis was gained from an in vivo mouse model, […] (ROP), which mimics some of the processes in Age-related Macular Degeneration and other eye diseases where neovascularisation is associated with disease progression.
Compound 5 was dosed at two concentrations, 0.5 μM and 5 μM, in a mouse Retinopathy of Prematurity (ROP) model (see Konopatskaya et al., 2006 for methods). Oxygen induced retinopathy was induced by placing the mice at 75% oxygen from day 7 to day 12 post birth and then removing them to normal room air. Mice were injected with either vehicle (0.02% DMSO in HBSS) or 0.5 μM or 5 μM compound 5 into one eye, and the other left uninjected (contralateral). At day 17 mice were killed, retinas removed and stained for endothelial cells with isolectin (FIG. 11).

Compound: pre-borrelidin
- IC50 (HUVEC [1]): 2380 nM
- IC50 (HUVEC [2]): > 30000 nM
- IC50 (HUVEC [3]): 461 nM
- identification of FBP21 fragment by biopanning (binding) (FBP21): never identified

Compound: CC1CC(C)CC(C)C(O)CC(=O)OC(C2CCCC2C(=O)NCc2cccnc2)C(C#N)=CC=CCC(O)C(C)C1 (stereo not drawn) [borrelidin-(3-picolylamide)]
- increase of micrometastases [4]: inhibit very considerably
- metastasis-forming ability of mouse colon adenocarcinoma cells transplanted into mouse spleen [5]: considerably decreased

Compound: CC1CC(C)CC(C)C(O)C(C#N)=CC=CCC(C2CCC2C(=O)O)OC(=O)CC(O)C(C)C1 (stereo not drawn) [compound 5, 17-des-(cyclopentane-2′-carboxylic acid)-17-(cyclobutane-2′-carboxylic acid) borrelidin]
- VEGFxxx expression (ELISA) [6]: significant downregulation
- VEGFxxxb expression (ELISA) [6]: significant upregulation
- increase in VEGFxxxb levels versus control ([7]; 5 μM): statistically higher than those of the control
- total VEGF levels (ELISA) ([7]; increasing concentrations): dose dependent decrease
- effect on VEGFxxxb levels after FBP21 transfection (FBP21 in RPE cells): FBP21 transfection reduced the effect
- effect on VEGFxxxb levels after FBP21 transfection (FBP21 in HEK cells): FBP21 transfection reduced the effect
- percentage neovascularisation compared to vehicle and the 5 μM dose ([8]; 0.5 μM injected into one eye): significantly inhibited
- neovascularisation compared with contralateral eye ([8]; 0.5 μM injected into one eye): significant reduction
- neovascularisation compared with contralateral eye ([8]; 5 μM injected into one eye): significant reduction
